Counter-ions that a name gives are not always drawn.
target: T1, MPO (purified from human polynuclear leukocytes) (Homo sapiens, UniProt P05164); assay: MPO Amplex Red Activity Assay; type: biochemical; details: Table 1, 2 μM H2O2, pH 7.4
T1 construct: purified from human polynuclear leukocytes; purchased Calbiochem/EMD Biosciences; host or cells: human polynuclear leukocytes (natural source)
Summary of the method: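 Human leukocyte MPO […] oxidises 30 μM Amplex Red with 2 μM H2O2 in 50 mM NaPi pH 7.4, 150 mM NaCl, 1 mM DTPA, 2% DMSO. Resorufin fluorescence (ex 530/em 580 nm) read every 20 s, minus catalase background. kobs from the first 600 s, corrected for auto-inactivation, fit versus [I] for kinact/KI.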

T1 sequence (P05164 279-745 limits assumed): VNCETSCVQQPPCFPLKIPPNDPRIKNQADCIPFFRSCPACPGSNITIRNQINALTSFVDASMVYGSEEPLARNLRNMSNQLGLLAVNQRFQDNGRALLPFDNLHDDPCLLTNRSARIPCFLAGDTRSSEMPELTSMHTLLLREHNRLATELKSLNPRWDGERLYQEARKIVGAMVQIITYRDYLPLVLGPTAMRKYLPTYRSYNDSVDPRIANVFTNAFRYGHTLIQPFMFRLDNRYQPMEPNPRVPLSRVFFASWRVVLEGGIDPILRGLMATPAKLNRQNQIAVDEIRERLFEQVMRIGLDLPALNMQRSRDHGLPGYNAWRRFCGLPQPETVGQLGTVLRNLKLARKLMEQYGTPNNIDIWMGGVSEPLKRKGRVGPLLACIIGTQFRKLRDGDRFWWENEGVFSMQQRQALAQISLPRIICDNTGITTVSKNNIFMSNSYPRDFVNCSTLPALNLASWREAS
T1 sequence (P05164 165-273 limits assumed): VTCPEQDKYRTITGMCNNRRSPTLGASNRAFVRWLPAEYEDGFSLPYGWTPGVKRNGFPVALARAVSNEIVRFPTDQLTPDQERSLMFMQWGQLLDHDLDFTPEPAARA

Row | SMILES | MPO kinact/Ki
1 | CNC(=O)Cn1c(-c2ccc(OC)cc2OC)cc(=O)[nH]c1=S [Example 190, 2-[6-(2,4-dimethoxyphenyl)-4-oxo-2-thioxo-3,4-dihydropyrimidin-1(2H)-yl]-N-methylacetamide] | 4090 1/s per M
2 | COc1ccc(-c2cc(=O)[nH]c(=S)n2CCCO)c(OC)c1 [Example 181, 6-(2,4-dimethoxyphenyl)-1-(3-hydroxypropyl)-2-thioxo-2,3-dihydropyrimidin-4(1H)-one] | 7160 1/s per M
3 | COCCn1c(-c2c[nH]c3ncccc23)cc(=O)[nH]c1=S [Example 35, 1-(2-methoxyethyl)-6-(1H-pyrrolo[2,3-b]pyridin-3-yl)-2-thioxo-2,3-dihydropyrimidin-4(1H)-one] | 4110 1/s per M
4 | COc1ccc(-c2cc(=O)[nH]c(=S)n2C[C@@H](O)CO)c(OC)c1 [Example 204, 1-[(2R)-2,3-dihydroxypropyl]-6-(2,4-dimethoxyphenyl)-2-thioxo-2,3-dihydropyrimidin-4(1H)-one] | 3900 1/s per M
5 | COc1ccc(C#N)cc1-c1cc(=O)[nH]c(=S)n1CC(N)=O [Example 170, 2-[6-(5-cyano-2-methoxyphenyl)-4-oxo-2-thioxo-3,4-dihydropyrimidin-1(2H)-yl]acetamide] | 4030 1/s per M
6 | COCCn1c(-c2cc(OC)c(Cl)cc2OC)cc(=O)[nH]c1=S [Example 233, 6-(4-chloro-2,5-dimethoxyphenyl)-1-(2-methoxyethyl)-2-thioxo-2,3-dihydropyrimidin-4(1H)-one] | 2510 1/s per M
7 | CCOC(=O)C(C)n1c(-c2ccc(OC)cc2OC)cc(=O)[nH]c1=S (stereo not drawn) [Example 239, ethyl 2-[6-(2,4-dimethoxyphenyl)-4-oxo-2-thioxo-3,4-dihydropyrimidin-1(2H)-yl]propanoate] | 1850 1/s per M
8 | CNCCn1c(-c2ccc(OC)cc2OC)cc(=O)[nH]c1=S [Example 177, 6-(2,4-dimethoxyphenyl)-1-[2-(methylamino)ethyl]-2-thioxo-2,3-dihydropyrimidin-4(1H)-one formate] | 5130 1/s per M
9 | COCCn1c(-c2cccnc2OC)cc(=O)[nH]c1=S [Example 23, 1-(2-methoxyethyl)-6-(2-methoxypyridin-3-yl)-2-thioxo-2,3-dihydropyrimidin-4(1H)-one] | 991 1/s per M
10 | COCCn1c(-c2cccc3c2OCC3)cc(=O)[nH]c1=S [Example 41, 6-(2,3-dihydro-1-benzofuran-7-yl)-1-(2-methoxyethyl)-2-thioxo-2,3-dihydropyrimidin-4(1H)-one] | 5000 1/s per M
11 | CCOC(=O)CCn1c(-c2ccc(OC)cc2OC)cc(=O)[nH]c1=S [Example 240, ethyl 3-[6-(2,4-dimethoxyphenyl)-4-oxo-2-thioxo-3,4-dihydropyrimidin-1(2H)-yl]propanoate] | 7070 1/s per M
12 | COCCn1c(-c2ccc(OC)cc2Cl)cc(=O)[nH]c1=S [Example 334, 6-(2-chloro-4-methoxyphenyl)-1-(2-methoxyethyl)-2-thioxo-2,3-dihydropyrimidin-4(1H)-one] | 6840 1/s per M
13 | COc1ccc(Cl)cc1-c1cc(=O)[nH]c(=S)n1C[C@H](O)CN [Example 114, 1-[(2R)-3-amino-2-hydroxypropyl]-6-(5-chloro-2-methoxyphenyl)-2-thioxo-2,3-dihydropyrimidin-4(1H)-one trifluoroacetate] | 9770 1/s per M
14 | COc1ccc(-c2cc(=O)[nH]c(=S)n2CCNC(=N)NC#N)c(OC)c1 [Example 136, 1-cyano-3-{2-[6-(2,4-dimethoxyphenyl)-4-oxo-2-thioxo-3,4-dihydropyrimidin-1(2H)-yl]ethyl}guanidine] | 1920 1/s per M
15 | COc1ccc(-c2cc(=O)[nH]c(=S)n2CC(=O)O)c(OC)c1 [Example 89, [6-(2,4-dimethoxyphenyl)-4-oxo-2-thioxo-3,4-dihydropyrimidin-1(2H)-yl]acetic acid] | 276 1/s per M
16 | COc1cc(OC)c(-c2cc(=O)[nH]c(=S)n2CCCN)cc1Cl [Example 129, 1-(3-aminopropyl)-6-(5-chloro-2,4-dimethoxyphenyl)-2-thioxo-2,3-dihydropyrimidin-4(1H)-one hydrochloride] | 18700 1/s per M
17 | COc1ccc(-c2cc(=O)[nH]c(=S)n2C[C@H](O)CN)c(OC)c1 [Example 197, 1-[(2R)-3-amino-2-hydroxypropyl]-6-(2,4-dimethoxyphenyl)-2-thioxo-2,3-dihydropyrimidin-4(1H)-one trifluoroacetate] | 5650 1/s per M
18 | COc1ccc(-c2cc(=O)[nH]c(=S)n2CCC2CCN(C(C)=O)CC2)c(OC)c1 [Example 153, 1-[2-(1-acetylpiperidin-4-yl)ethyl]-6-(2,4-dimethoxyphenyl)-2-thioxo-2,3-dihydropyrimidin-4(1H)-one] | 2200 1/s per M
19 | COc1ccc(-c2cc(=O)[nH]c(=S)n2CCNC(=O)[C@@H](N)C(C)C)c(OC)c1 [Example 263, N-{2-[6-(2,4-dimethoxyphenyl)-4-oxo-2-thioxo-3,4-dihydropyrimidin-1(2H)-yl]ethyl}-L-valinamide trifluoroacetate] | 4340 1/s per M
20 | NCCn1c(-c2csc3ccccc23)cc(=O)[nH]c1=S [Example 36, 1-(2-aminoethyl)-6-(1-benzothien-3-yl)-2-thioxo-2,3-dihydropyrimidin-4(1H)-one hydrochloride] | 5980 1/s per M
21 | COCCn1c(-c2cc(Cl)ccc2OC)cc(=O)[nH]c1=S [Example 333, 6-(5-chloro-2-methoxyphenyl)-1-(2-methoxyethyl)-2-thioxo-2,3-dihydropyrimidin-4(1H)-one] | 6100 1/s per M
22 | COc1cc(OC)c(-c2cc(=O)[nH]c(=S)n2CC(N)=O)cc1OC [Example 124, 2-[4-oxo-2-thioxo-6-(2,4,5-trimethoxyphenyl)-3,4-dihydropyrimidin-1(2H)-yl]acetamide] | 4610 1/s per M
23 | COc1ccc(F)cc1-c1cc(=O)[nH]c(=S)n1CC(N)=O [Example 59, 2-[6-(5-fluoro-2-methoxyphenyl)-4-oxo-2-thioxo-3,4-dihydropyrimidin-1(2H)-yl]acetamide] | 8480 1/s per M
24 | COCCn1c(-c2cncnc2)cc(=O)[nH]c1=S [Example 280, 3-(2-methoxyethyl)-2-thioxo-2,3-dihydro-4,5′-bipyrimidin-6(1H)-one] | 430 1/s per M
25 | COCCn1c(-c2ccc(C#N)cc2)cc(=O)[nH]c1=S [Example 13, 4-[3-(2-methoxyethyl)-6-oxo-2-thioxo-1,2,3,6-tetrahydro-pyrimidin-4-yl]benzonitrile] | 745 1/s per M
26 | COc1ccc(-c2cc(=O)[nH]c(=S)n2CC(O)CN)c(OC)c1 (stereo not drawn) [Example 199, 1-(3-amino-2-hydroxypropyl)-6-(2,4-dimethoxyphenyl)-2-thioxo-2,3-dihydropyrimidin-4(1H)-one hydrochloride] | 9080 1/s per M
27 | COc1cc(F)ccc1-c1cc(=O)[nH]c(=S)n1CC(N)=O [Example 56, 2-[6-(4-fluoro-2-methoxyphenyl)-4-oxo-2-thioxo-3,4-dihydropyrimidin-1(2H)-yl]acetamide] | 4770 1/s per M
28 | COc1ccc(Cl)cc1-c1cc(=O)[nH]c(=S)n1CCO [Example 64, 6-(5-chloro-2-methoxyphenyl)-1-(2-hydroxyethyl)-2-thioxo-2,3-dihydropyrimidin-4(1H)-one] | 22500 1/s per M
29 | COc1ccc(C#N)cc1-c1cc(=O)[nH]c(=S)n1CCO [Example 163, 3-[3-(2-hydroxyethyl)-6-oxo-2-thioxo-1,2,3,6-tetrahydropyrimidin-4-yl]-4-methoxybenzonitrile] | 8090 1/s per M
30 | COc1ccc(-c2cc(=O)[nH]c(=S)n2CCCN)c(Cl)c1 [Example 91, 1-(3-aminopropyl)-6-(2-chloro-4-methoxyphenyl)-2-thioxo-2,3-dihydropyrimidin-4(1H)-one hydrochloride] | 9360 1/s per M

same assay, conditions: Table 1A, 2 μM H2O2, pH 7.4

Row | SMILES | MPO kinact/Ki
31 | NC(=O)Cn1c(-c2ccc(F)cc2OCCO)cc(=O)[nH]c1=S [Example 414, 2-{6-[4-fluoro-2-(2-hydroxyethoxy)phenyl]-4-oxo-2-thioxo-3,4-dihydropyrimidin-1(2H)-yl}acetamide] | 1680 1/s per M
32 | O=c1cc(-c2cc(Cl)ccc2OCCO)n(CCO)c(=S)[nH]1 [Example 425, 6-[5-chloro-2-(2-hydroxyethoxy)phenyl]-1-(2-hydroxyethyl)-2-thioxo-2,3-dihydropyrimidin-4(1H)-one] | 13400 1/s per M
33 | COc1ccc(-c2cc(=O)[nH]c(=S)n2CC(=O)NCCNC(=O)[C@H](C)N)c(OC)c1 [Example 399, N-[2-({[6-(2,4-dimethoxyphenyl)-4-oxo-2-thioxo-3,4-dihydropyrimidin-1(2H)-yl]acetyl}amino)ethyl]-L-alaninamide] | 4860 1/s per M
34 | COc1cc(C)ccc1-c1cc(=O)[nH]c(=S)n1CC(N)=O [Example 418, 2-[6-(2-methoxy-4-methylphenyl)-4-oxo-2-thioxo-3,4-dihydropyrimidin-1(2H)-yl]acetamide] | 11500 1/s per M
35 | COc1ccc(F)cc1-c1cc(=O)[nH]c(=S)n1CCONC(=N)N [Example 419, 1-{2-[6-(5-fluoro-2-methoxyphenyl)-4-oxo-2-thioxo-3,4-dihydropyrimidin-1(2H)-yl]ethoxy}guanidine] | 1200 1/s per M
36 | COc1ccc(-c2cc(=O)[nH]c(=S)n2CC(=O)N[C@@H]2CC[C@H]2N)c(OC)c1 [Example 441, N-[(1R,2R)-2-aminocyclobutyl]-2-[6-(2,4-dimethoxyphenyl)-4-oxo-2-thioxo-3,4-dihydropyrimidin-1(2H)-yl]acetamide] | 3260 1/s per M
